Experimental data taken from PMC5047057 (Oral oncology, 2016).

Columns and labels:
[1] = tested on: Rb-negative tumor xenografts; conditions: cited from earlier work
[2] = tested on: patients with Rb-positive cancers; conditions: cited from earlier work
[3] = tested on: Rb-positive cell lines; conditions: cited from earlier work
[4] = tested on: patients with recurrent/metastatic head and neck squamous cell carcinoma (HNSCC)
[5] = clinical; design: species or system human; conditions: in vivo; for Tmax / AUC(0-t) / Cmax: human, po; for AUC(0-t): AUC0-24h
[6] = Palbociclib 125 mg (n=6 pts) with weekly cetuximab, all cycles

Compound: CC(=O)c1c(C)c2cnc(Nc3ccc(N4CCNCC4)cn3)nc2n(C2CCCC2)c1=O [palbociclib]
- Activity in xenografts [1]: no activity
- Systemic exposure versus dose ([2]; dose range of 25-150 mg): dose proportionality
- Maximum tolerated dose (MTD) ([2]; once daily, administered for 21 days of each 28 day cycle, monotherapy): 125 mg
- Dose-limiting toxicity (DLT) ([2]; palbociclib monotherapy phase I trials): neutropenia
- Anti-proliferative effects [3]: potent anti-proliferative effects
- Acneiform Rash, Grade 3 (number of patients) [4, 6]: 0
- Acneiform Rash, Grades 1-2 (number of patients) [4, 6]: 5
- Anemia, Grade 3 (number of patients) [4, 6]: 0
- Anemia, Grades 1-2 (number of patients) [4, 6]: 6
- Diarrhea, Grade 3 (number of patients) [4, 6]: 0
- Diarrhea, Grades 1-2 (number of patients) [4, 6]: 1
- Fatigue, Grade 3 (number of patients) [4, 6]: 0
- Fatigue, Grades 1-2 (number of patients) [4, 6]: 3
- Hypomagnesemia, Grade 3 (number of patients) [4, 6]: 0
- Hypomagnesemia, Grades 1-2 (number of patients) [4, 6]: 2
- Infusion Reaction, Grade 3 (number of patients) [4, 6]: 0
- Infusion Reaction, Grades 1-2 (number of patients) [4, 6]: 1
- Nausea, Grade 3 (number of patients) [4, 6]: 0
- Nausea, Grades 1-2 (number of patients) [4, 6]: 2
- Neutropenia, Grade 3 (number of patients) [4, 6]: 2
- Neutropenia, Grades 1-2 (number of patients) [4, 6]: 2
- Thrombocytopenia, Grade 3 (number of patients) [4, 6]: 0
- Thrombocytopenia, Grades 1-2 (number of patients) [4, 6]: 3
- Vomiting, Grade 3 (number of patients) [4, 6]: 0
- Vomiting, Grades 1-2 (number of patients) [4, 6]: 1
- Palbociclib dose recommended for phase II trials ([4]; days 1-21 of a 28 day cycle with standard doses of weekly cetuximab): 125 mg/day
- Intra-patient dose reductions ([4]; in vivo): did not occur
- Most common AE ([4]; in vivo): Myelosuppression
- Maximum tolerated dose (MTD) ([4]; palbociclib up to 125 mg/day days 1-21 of 28 with standard weekly cetuximab): not reached
- Tmax ([5]; 100 mg): 8 h
- AUC(0-t) ([5]; 100 mg): 1480 ng·h/mL
- Cmax ([5]; 100 mg): 70 ng/mL
- Tmax ([5]; 100 mg, Tmax): 8 h
- AUC(0-t) ([5]; 125 mg): 2230 ng·h/mL
- Cmax ([5]; 125 mg): 145 ng/mL
- Tmax ([5]; 125 mg, Tmax): 8 h
- Dose-normalized Cmax and AUC0-24h, 100 vs 125 mg daily oral doses [5]: comparable
